Test results from PubChem BioAssay AID1963833 (Molecular Pharmacology Branch, DTP, NCI, 2024).

Tested on: 883617-216-R-J1-PDC complex spheroid viability
Assay: Anticancer human tumor 883617-216-R-J1-PDC patient-derived bladder carcinoma cell line growth inhibition [POLQ]
Conditions: for IC50: curve of first compound; for viability, T/C: stronger effect = lower value
Procedure: Multicellular complex tumor spheroid response to Polymerase (POL) inhibitors (novobiocin, ART-558, RP6685) in combination with a variety of drugs and investigational agents in selected tumor cell lines
The POL inhibitors (novobiocin, ART-558, and RP6685) were evaluated both individually and in combination with standard of care and investigational anticancer small molecules within a complex spheroid model of solid tumors. . Complex spheroids include a stromal component modeled by human endothelial cells (HUVEC) and fibroblasts modeled by human mesenchymal stem cells (MSCs). The concentration ranges selected for each drug and investigational agent were based upon clinically achievable concentrations if the clinical Cmax of the agent was known.
Compounds. The drugs and investigational agents: novobiocin (NSC847541), ART-558 (NSC835418), RP-6685 (NSC848927), peposertib (NSC802822), ceralasertib (NSC780249), elimusertib (NSC800525), camonsertib (NSC841442), AZD-1390 (NSC803789), olaparib (NSC753686), talazoparib (NSC767125), rucaparib (NSC756644), sotorasib (NSC818433), MRTX-1133 (NSC836407), SN-38 (NSC673596), topotecan (NSC609699), epotoside (NSC141540), doxorubicin (NSC123127), gemcitabine (NSC613327), 5-fluorouracil (NSC19893), paclitaxel (NSC125973), vemurafenib (NSC761431), MSA-2 (NSC828583), SN-011 (NSC837082), adavosertib (NSC754352), prexasertib (NSC758257), carboplatin (NSC241240) and oxaliplatin (NSC266046), were obtained from the National Cancer Institute (NCI) Developmental Therapeutics Program Chemical Repository (21). The FDA-approved anticancer drug set is available from the Developmental Therapeutics Program at https://dtp.cancer.gov/organization/dscb/obtaining/. […] The stock solutions were prepared in dimethyl sulfoxide (DMSO, Sigma-Aldrich, St. Louis, MO, cat. D2650), except for the platinum compounds which were prepared in saline (Quality Biological, Gaithersburg, MD, cat. 114-055-101), at 800-fold the tested concentration and stored at -70 degrees C prior to their use. All drugs and investigational agents were tested over a range starting from a high concentration at or near the clinical Cmax and decreasing in half-log increments. If the clinical Cmax for an agent had not been determined, the highest concentration tested was 10 microM, except for SN-38, which was tested at a high concentration of 1 microM.
Cell Culture. All cells were maintained in an incubator at 37 degrees C and 5% CO2 with 95% humidity. The PDC lines were cultured according to standard operating procedures established by the NCI PDMR (https://pdmr.cancer.gov). Table 3 of the manuscript, lists the cell lines along with the number of the three cell types plated to form the mct-spheroids and media for tumor cell growth. After thawing, all PDC lines, except 997537-175-T-J1-PDC and 415267-285-R-J2-PDC, were cultured in Matrigel-coated flasks prepared with a working solution of 1X Ham's F-12 nutrient mix, without supplementation (Thermo Fisher Scientific, cat. 11765054), 100 U/mL penicillin-streptomycin (Thermo Fisher Scientific, cat. 15140122), and 2.5% Matrigel (Corning Inc., Corning, NY, cat. 354248) for the first three passages. The two PDC lines 997537-175-T-J1-PDC and 415267-285-R-J2-PDC were cultured on uncoated flasks. The 857933-349-R-J2-PDC line was cultured in 6C/Colon 1B media containing advanced DMEM/F-12 (Thermo Fisher Scientific, cat. 12634028), 10 mM HEPES (Thermo Fisher Scientific, cat. 15630080), 1X GlutaMAX supplement (Thermo Fisher Scientific, cat. 35050061), 0.1 mg/mL primocin (InvivoGen, San Diego, CA, cat. ant-pm-2), 10% defined fetal bovine serum, heat inactivated (HyClone Laboratories Inc., Logan, UT, cat. SH30070.03HI), 50% L-WRN conditioned media (ATCC, cat. CRL-3276), 1.25 mM N-Acetyl-L-cysteine (Sigma-Aldrich, cat. A9165), 10 mM nicotinamide (Sigma-Aldrich, cat. N0636), 1X B-27 supplement (Thermo Fisher Scientific, cat. 17504044), 1X N-2 supplement (Thermo Fisher Scientific, cat. […]

[1] = second compound 0.0316 µM, first compound 0.0316 µM
[2] = second compound 0.0316 µM, first compound 0.1 µM
[3] = second compound 0.0316 µM, first compound 0.316 µM
[4] = second compound 0.0316 µM, first compound 1 µM
[5] = second compound 0.1 µM, first compound 0.0316 µM
[6] = second compound 0.1 µM, first compound 0.1 µM
[7] = second compound 0.1 µM, first compound 0.316 µM
[8] = second compound 0.1 µM, first compound 1 µM
[9] = second compound 0.316 µM, first compound 0.0316 µM
[10] = second compound 0.316 µM, first compound 0.1 µM
[11] = second compound 0.316 µM, first compound 0.316 µM
[12] = second compound 0.316 µM, first compound 1 µM
[13] = second compound 1 µM, first compound 0.0316 µM
[14] = second compound 1 µM, first compound 0.1 µM
[15] = second compound 1 µM, first compound 0.316 µM
[16] = second compound 1 µM, first compound 1 µM
[17] = second compound 3.16 µM, first compound 0.0316 µM
[18] = second compound 3.16 µM, first compound 0.1 µM
[19] = second compound 3.16 µM, first compound 0.316 µM
[20] = second compound 3.16 µM, first compound 1 µM
[21] = second compound 10 µM, first compound 0.0316 µM
[22] = second compound 10 µM, first compound 0.1 µM
[23] = second compound 10 µM, first compound 0.316 µM
[24] = second compound 10 µM, first compound 1 µM
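Also: spheroids exposed to compounds for seven days before readout.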
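For viability, T/C in this document: 100% = DMSO vehicle control viability.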

CCc1c2c(nc3ccc(O)cc13)-c1cc3c(c(=O)n1C2)COC(=O)[C@]3(O)CC + Nc1ccc(C#CCN(C(=O)Cc2ncc(C(F)(F)F)cc2C(F)(F)F)c2ccc(F)cc2)nn1
IC50 (second compound 0.0316 µM): 107 nM | IC50 (second compound 0.1 µM): 169 nM | IC50 (second compound 0.316 µM): 177 nM | IC50 (second compound 1 µM): 90.8 nM | IC50 (second compound 3.16 µM): 168 nM | IC50 (second compound 10 µM): 278 nM | viability, T/C (second compound 0.0316 µM, first compound 0.00316 µM): 77.5% | viability, T/C (second compound 0.0316 µM, first compound 0.01 µM): 71% | viability, T/C [1]: 59.1% | viability, T/C [2]: 51.3% | viability, T/C [3]: 40% | viability, T/C [4]: 27.1% | viability, T/C (second compound 0.1 µM, first compound 0.00316 µM): 92.6% | viability, T/C (second compound 0.1 µM, first compound 0.01 µM): 68.3% | viability, T/C [5]: 70.8% | viability, T/C [6]: 62.3% | viability, T/C [7]: 39.5% | viability, T/C [8]: 27.9% | viability, T/C (second compound 0.316 µM, first compound 0.00316 µM): 77.5% | viability, T/C (second compound 0.316 µM, first compound 0.01 µM): 76% | viability, T/C [9]: 72.6% | viability, T/C [10]: 51% | viability, T/C [11]: 46.6% | viability, T/C [12]: 26.8% | viability, T/C (second compound 1 µM, first compound 0.00316 µM): 86.4% | viability, T/C (second compound 1 µM, first compound 0.01 µM): 82.6% | viability, T/C [13]: 59.3% | viability, T/C [14]: 50.1% | viability, T/C [15]: 40.1% | viability, T/C [16]: 31.4% | viability, T/C (second compound 3.16 µM, first compound 0.00316 µM): 94.8% | viability, T/C (second compound 3.16 µM, first compound 0.01 µM): 84.2% | viability, T/C [17]: 71.1% | viability, T/C [18]: 52.3% | viability, T/C [19]: 45.9% | viability, T/C [20]: 27.4% | viability, T/C (second compound 10 µM, first compound 0.00316 µM): 93.6% | viability, T/C (second compound 10 µM, first compound 0.01 µM): 89.1% | viability, T/C [21]: 78.9% | viability, T/C [22]: 59.8% | viability, T/C [23]: 51.4% | viability, T/C [24]: 34.1%

COc1cc2cc(C(=O)CCC(=O)O)sc2cc1OC + Nc1ccc(C#CCN(C(=O)Cc2ncc(C(F)(F)F)cc2C(F)(F)F)c2ccc(F)cc2)nn1
IC50 (second compound 0.0316 µM): > 10000 nM | IC50 (second compound 0.1 µM): > 10000 nM | IC50 (second compound 0.316 µM): > 10000 nM | IC50 (second compound 1 µM): > 10000 nM | IC50 (second compound 3.16 µM): > 10000 nM | IC50 (second compound 10 µM): > 10000 nM | viability, T/C [1]: 109% | viability, T/C [2]: 107% | viability, T/C [3]: 123% | viability, T/C [4]: 93.5% | viability, T/C (second compound 0.0316 µM, first compound 3.16 µM): 105% | viability, T/C (second compound 0.0316 µM, first compound 10 µM): 104% | viability, T/C [5]: 112% | viability, T/C [6]: 90.6% | viability, T/C [7]: 101% | viability, T/C [8]: 95.5% | viability, T/C (second compound 0.1 µM, first compound 3.16 µM): 101% | viability, T/C (second compound 0.1 µM, first compound 10 µM): 107% | viability, T/C [9]: 90.7% | viability, T/C [10]: 101% | viability, T/C [11]: 94.9% | viability, T/C [12]: 100% | viability, T/C (second compound 0.316 µM, first compound 3.16 µM): 114% | viability, T/C (second compound 0.316 µM, first compound 10 µM): 106% | viability, T/C [13]: 97.1% | viability, T/C [14]: 125% | viability, T/C [15]: 108% | viability, T/C [16]: 102% | viability, T/C (second compound 1 µM, first compound 3.16 µM): 91.5% | viability, T/C (second compound 1 µM, first compound 10 µM): 95.6% | viability, T/C [17]: 114% | viability, T/C [18]: 115% | viability, T/C [19]: 115% | viability, T/C [20]: 83.2% | viability, T/C (second compound 3.16 µM, first compound 3.16 µM): 92.5% | viability, T/C (second compound 3.16 µM, first compound 10 µM): 120% | viability, T/C [21]: 122% | viability, T/C [22]: 128% | viability, T/C [23]: 122% | viability, T/C [24]: 113% | viability, T/C (second compound 10 µM, first compound 3.16 µM): 155% | viability, T/C (second compound 10 µM, first compound 10 µM): 110%
